Where a SMILES comes first, the peptide text is derived from it. [ ]: non-standard residue; d: D form. The star is where a group is joined. Sta = CC(C)C[C@H](N)[C@@H](O)CC(=O)O; Isovaleryl = CC(C)CC(=O)*
Key:
rOaAEP1b [1] = assay: Inhibition assay, enzyme activity against wt IQF peptide; type: biochemical, Oldenlandia affinis; details: 40 min pre-incubation, wt IQF peptide 11 μM, 90 min
Protocol: To investigate the impact of inhibitors on enzyme activity against the wt IQF peptide, rOaAEP1b (4.4 μg ml^–1 total protein) was incubated with the indicated concentration of E64, Ac-YVAD-CHO, pepstatin A and iodoacetamide for 40 min before addition to the substrate (11 μM). Enzyme activity against the wt IQF peptide was then assessed as described above.
Supplementary Figure 3: rOaAEP1b activity against the wt IQF peptide in the presence of protease inhibitors. rOaAEP1b (~4.4 µg ml-1 total protein) was allowed to cleave the wt IQF peptide (11 µM) and fluorescence intensity was recorded every minute for 90 min. The enzyme activity in the presence of inhibitors is reported relative to a no inhibitor control at the 90 min time point. Each data point represents the average of two technical replicates and error bars report the range.
(1 picture or pasted object on this page, not shown here)

rOaAEP1b [2] = assay: Cyclization assay of linear peptides followed by MALDI MS; type: biochemical, Oldenlandia affinis
Protocol: Linear target peptides (280 μM) were incubated with rOaAEP1b (12 μg ml^−1 total protein unless otherwise indicated) in activity buffer. The reaction was allowed to proceed for up to 22 h at room temperature and was analysed by matrix-assisted laser desorption/ionization MS (MALDI MS), RP-HPLC or NMR as appropriate.
To confirm the presence of cyclic product, R1 derivatives processed by rOaAEP1b were subsequently digested with endoGlu-C (25 μg ml^−1) in reaction buffer (50 mM Tris-HCl, 0.5 mM Glu–Glu, pH 8) such that the final dilution of the cyclization mix was 1:4. The reaction was allowed to proceed for 18 h at 37 °C before analysis by MALDI MS.
Cyclization of linear target peptides was monitored by MALDI MS. The reaction mixture (10–20 μl) was desalted using C18 zip tips and eluted in 4 μl 50% acetonitrile, 0.1% trifluoroacetic acid (TFA). A saturated MALDI matrix solution (α–cyano-4-hyroxycinnamic acid) prepared in 95% acetonitrile, 0.1% TFA was diluted 1:22 such that the final matrix solution comprised 90% acetonitrile, 0.1% TFA and 1 mM NH4H2PO4. Eluted samples were mixed 1:4 with the MALDI matrix, spotted onto a MALDI plate and analysed by an Ultraflex III TOF/TOF (Bruker) in positive reflector mode.

[3] = assayed against a small substrate; cited from earlier work
Protocol: The activity of rOaAEP1b against IQF peptides representing wt and mutant versions of the native kB1 C-terminal cleavage site was determined (Table 1; Supplementary Fig. 4a). […] This observation is consistent with the lack of cyclic product generated when the corresponding mutation was introduced in planta. Kinetic parameters (Vmax, Km and kcat) are reported where applicable (Table 1). The tur ...

CC(C)C[C@H](NC(=O)[C@H]1O[C@@H]1C(=O)O)C(=O)NCCCCN=C(N)N [E64]
effect of inhibitor on rOaAEP1b activity (rOaAEP1b [1]; E64 250 μM): not affected

Ac-YVAD-CHO
effect of inhibitor on rOaAEP1b activity (rOaAEP1b [1]; Ac-YVAD-CHO 500 μM): poor inhibitor

VFAEFLPLFSKFGSRMHILK [R1, anti-malarial peptide structurally unrelated to cyclotides]
processing by rOaAEP1b of R1 peptides lacking a full recognition sequence (rOaAEP1b [2]; 22 h, MALDI MS): No processing | cyclization by rOaAEP1b following the addition of N- and C-terminal AEP recognition sequences (rOaAEP1b [2]; 22 h post addition of rOaAEP1b, MALDI MS, cyclic product confirmed by endoGlu-C digestion): efficiently cyclized | cyclization efficiency (rOaAEP1b [2]; rOaAEP1b): ~100%

NC(=O)CI [iodoacetamide]
effect of inhibitor on rOaAEP1b activity (rOaAEP1b [1]; iodoacetamide 1 mM, 4.4 μg ml^-1 total protein): inhibited

CC(C)CC(=O)N[C@H](C(=O)N[C@H](C(=O)N[C@@H](CC(C)C)[C@@H](O)CC(=O)N[C@@H](C)C(=O)N[C@@H](CC(C)C)[C@@H](O)CC(=O)O)C(C)C)C(C)C [pepstatin A] (Isovaleryl-VV[Sta]A[Sta]-OH)
effect of inhibitor on rOaAEP1b activity (rOaAEP1b [1]; pepstatin A 10 μM): not affected

B1: recombinant human legumain: recombinant human AEP (protein, UniProt Q99538 18-323, looked up)
Legumain: VPIDDPEDGGKHWVVIVAGSNGWYNYRHQADACHAYQIIHRNGIPDEQIVVMMYDDIAYSEDNPTPGIVINRPNGTDVYQGVPKDYTGEDVTPQNFLAVLRGDAEAVKGIGSGKVLKSGPQDHVFIYFTDHGSTGILVFPNEDLHVKDLNETIHYMYKHKMYRKMVFYIEACESGSMMNHLPDNINVYATTAANPRESSYACYYDEKRSTYLGDWYSVNWMEDSDVEDLTKETLHKQYHLVKSHTNTSHVMQYGNKTISTMKVMQFQGMKRKASSPVPLPPVTHLDLTPSPDVPLTIMKRKLMNTN
turnover rate (kcat) [3]: ~8 s⁻¹

B2: kB1L31A: kB1 precursor with a Leu31Ala mutation (peptide, UniProt P56254 23-124, looked up, variant L31A)
pro-form: SELSDSHKTTLVNEIAEKMLQRKILDGVEATLVTDVAEKMFLRKMKAEAKTSETADQVFLKQLQLKGLPVCGETCVGGTCNTPGCTCSWPVCTRNGAPSLAA
modifications: pro-form
notes: kB1 precursor with a Leu31Ala mutation
rOaAEP1b-mediated processing of modified kB1 and kB2 precursors over time (rOaAEP1b [2]; 280 μM peptide, pH 5, room temperature, 1, 5 and 22 h, MALDI MS, three technical replicates): cyclized far more slowly than the wt precursor

Reference: article PMC4703859, “Efficient backbone cyclization of linear peptides by a recombinant asparaginyl endopeptidase” (Nature Communications, 2015)
